Measurements reported in paper PMC8868160, “Antioxidant and Anti-α-Glucosidase Activities of Various Solvent Extracts and Major Bioactive Components from the Fruits of Crataegus pinnatifida” (Antioxidants, 2022).
Where two headings read alike, the source gives them in different places.

What was measured:
[1] = Superoxide radical scavenging activity (PMS/NADH-NBT system); format: biochemical; details: isolated components (Table 5)
Method: The scavenging activity of superoxide anion radical (O2^•−) was evaluated using a modified method. NBT (300 μM), NADH (468 μM), and PMS (120 μM) were prepared with dilution by Tris-HCl buffer (16 mM, pH 8.0), respectively. An amount of 50 μL of NBT, PMS, and different concentrations (400, 200, 10, 50, and 25 µg/mL) of extracts or compounds were mixed. An amount of 50 μL NADH solution was added, and the reaction was initiated to produce superoxide radicals. The absorbance was measured at 560 nm after incubating at room temperature for 5 min. The scavenging activity was measured by the following equation:Superoxide radical scavenging activity = (Ac − At)/Ac × 100, where At is the absorbance of the test sample, and Ac is the absorbance of the control (untreated group). The IC50 values of all tested activities were determined by the linear regression of the percentage of remaining superoxide radical against the sample concentration.

[2] = DPPH radical scavenging activity; format: biochemical
Method: The scavenging activity of DPPH radical was investigated as described with slight modification. DPPH solution was prepared diluted by EtOH to reach the final concentration of 200 µM. Different concentrations (200, 100, 50, 25, and 12.5 µg/mL) of extracts or compounds (100 µL) were mixed with DPPH solution (100 µL) and incubated for 30 min at room temperature and in darkness, and the absorbance of the mixture was measured at 520 nm. DPPH radical scavenging activity was calculated with the following formula: DPPH scavenging activity (%) = (Ac − At)/Ac × 100, where At is the absorbance of the test sample, and Ac is the absorbance of the control (untreated group). BHT was used as the positive control. All half-maximal inhibitory concentration (IC50) values of tested activities were determined by the linear regression of the percentage of remaining DPPH radical against the sample’s concentration.

[3] = Ferric reducing antioxidant power (FRAP); format: biochemical
Method: Ferric reducing antioxidant power was measured based on previous study with slight modification. The working solution was mixed with acetate buffer (pH 3.6), ferric chloride solution (20 mM), and TPTZ solution (10 mM TPTZ in 40 mM HCl) in a proportion of 10:1:1, respectively, and freshly prepared before used. An amount of 900 μL of the working solution was warmed to 37 °C and then mixed with 100 μL of the diluted sample, blank or standard in a microcentrifuge tube. The tubes were vortexed and in the dry bath at 37 °C for 40 min. Absorbance was measured at 593 nm. […] Results are expressed in mM TE/g dry weight. Additional dilution was needed if the FRAP value measured was over the linear range of the standard curve.

α-glucosidase = target: T1, α-glucosidase (Saccharomyces cerevisiae, UniProt P53341); assay: biochemical
T1 construct: purchased Sigma-Aldrich
Method: The inhibition assay of α-glucosidase was conducted using the conditions previously reported with slight modifications. The α-Glucosidase solution was diluted by 0.1 M sodium phosphate buffer (pH 6.8) to 1 U/mL. […] Subsequently, p-NPG (0.53 mM; 380 μL), the substrate, was added and incubated in dry baths at 37 °C for 40 min after the mixture vortexed. The reaction was terminated after adding 0.1 M Na2CO3 solution (500 μL). The absorbance of released p-nitrophenol (p-PNP) was measured by calculating the decrease in absorbance measured at 400 nm by the following equation:α-Glucosidase inhibition (%) = (Ac − At)/Ac × 100, where Ac is the absorbance of the control (untreated group), and At is the absorbance of the test sample. The IC50 values of all tested activities were determined by the linear regression of the percentage of remaining α-glucosidase against the sample concentration.

[4] = Hydroxyl radical scavenging activity (Fenton reaction, deoxyribose); format: biochemical
Method: The scavenging activity of hydroxyl radical was measured based on the method described by Mathew and Abraham with slight revision. In short, different concentrations (400, 200, 10, 50, and 25 µg/mL) of extracts or compounds (200 μL) were mixed with working solution (200 μL) contained 1 mM FeCl3, 1 mM EDTA, and 2.8 mM deoxyribose. Then, 20 μL ascorbic acid (1 mM) and 100 μL H2O2 (20 mM) in sodium phosphate buffer (20 mM pH 7.4) was added. The mixture was incubated in a water bath at 37 °C for 1 h to trigger the Fenton reaction and form a hydroxyl radical. After incubation, 2.8% TCA (200 μL) and 1% TBA (200 μL) were added and boiled in the dry bath at 100 °C for 1 h. The mixture was measured at 532 nm by the following equation:Hydroxyl radical scavenging activity (%) = (Ac − At)/Ac × 100, where At and Ac are the absorbance of the test sample and the control (untreated group), respectively. The IC50 values of all tested activities were determined by the linear regression of the percentage of remaining hydroxyl radical against the sample’s concentration.

[5] = ABTS radical scavenging activity; format: biochemical
Method: ABTS radical scavenging activity of each extract was measured based on the method with slight changes. In brief, the stock of working solution was prepared by the mix of 28 mM ABTS solution and 9.6 mM potassium persulfate with ddH2O (final concentration, 1/1, v/v) and leaving the mixture in the dark for about 16 h at room temperature before use. The working solution was diluted by EtOH to reach the absorbance of 0.70 ± 0.02 at 740 nm for further experiments. Different concentrations (200, 100, 50, 20, and 12.5 µg/mL) of extracts or compounds (10 µL) were mixed with the working solution (190 μL). The mixture was incubated at room temperature for 6 min, the antioxidant activity of the mixture was determined by calculating the decrease in absorbance measured at 740 nm by the following equation:ABTS radical inhibiting activity (%) = (Ac − At)/Ac × 100,
Where Ac and At are the absorbance of the control (untreated group) and test sample, respectively. The IC50 values of all tested activities were determined by the liner regression of the percentage of remaining ABTS radical against the sample’s concentration.

[6] = isolated components, BHT positive control (Table 5)
[7] = isolated components, mM Trolox equivalents per gram (Table 5)
[8] = solvent extracts, BHT positive control (Table 2)

T1 sequence (P53341 whole entry): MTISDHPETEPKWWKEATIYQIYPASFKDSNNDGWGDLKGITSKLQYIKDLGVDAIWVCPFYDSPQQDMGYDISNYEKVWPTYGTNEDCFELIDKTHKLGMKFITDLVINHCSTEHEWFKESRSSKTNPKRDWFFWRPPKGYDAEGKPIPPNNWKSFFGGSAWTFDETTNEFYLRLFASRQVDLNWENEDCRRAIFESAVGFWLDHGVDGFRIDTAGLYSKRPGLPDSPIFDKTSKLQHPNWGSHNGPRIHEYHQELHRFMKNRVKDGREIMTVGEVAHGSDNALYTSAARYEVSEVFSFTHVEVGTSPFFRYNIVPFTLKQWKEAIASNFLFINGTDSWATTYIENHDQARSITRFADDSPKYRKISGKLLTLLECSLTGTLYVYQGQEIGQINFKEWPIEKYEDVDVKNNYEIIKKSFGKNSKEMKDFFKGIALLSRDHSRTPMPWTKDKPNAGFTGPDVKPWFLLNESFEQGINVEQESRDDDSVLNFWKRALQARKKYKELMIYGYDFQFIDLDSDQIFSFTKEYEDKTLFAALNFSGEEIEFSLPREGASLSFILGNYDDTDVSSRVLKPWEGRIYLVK

Compound: Oc1cc(O)c2c(c1)O[C@H](c1ccc(O)c(O)c1)[C@H](O)C2 [Epicatechin, epicatechin]
- Superoxide IC50 [1]: 41.56 ± 0.20 µg/mL
- DPPH IC50 [2, 6]: 2.53 ± 0.25 µg/mL
- FRAP (TE) [3, 7]: 13,165.19 ± 42.42 mM/g
- FRAP (TE) ([3]; isolated components, mM Trolox equivalents per gram (Table 5), listed as epicatechin): ≥ 7726.67 ± 39.97 mM/g
- IC50 (α-glucosidase; read-out: α-Glucosidase IC50 (converted)): 282 µM
- Hydroxyl IC50 [4, 6]: 20 ± 3.49 µg/mL
- ABTS IC50 [5, 6]: 3.75 ± 0.03 µg/mL

Compound: Oc1cc(O)c2c(c1)O[C@H](c1ccc(O)c(O)c1)[C@H](O)[C@H]2c1c(O)cc(O)c2c1O[C@H](c1ccc(O)c(O)c1)[C@H](O)C2 [Procyanidin B2, procyanidin B2]
- Superoxide IC50 [1]: 37.22 ± 0.63 µg/mL
- DPPH IC50 [2, 6]: 2.81 ± 0.08 µg/mL
- FRAP (TE) [3, 7]: 11,092.44 ± 32.92 mM/g
- FRAP (TE) ([3]; isolated components, mM Trolox equivalents per gram (Table 5), listed as procyanidin B2): ≥ 7726.67 ± 39.97 mM/g
- IC50 (α-glucosidase): 205 µM
- Hydroxyl IC50 [4, 6]: 13.69 ± 1.88 µg/mL
- ABTS IC50 [5, 6]: 2.91 ± 0.57 µg/mL

Compound: O=c1c(O[C@@H]2O[C@H](CO)[C@H](O)[C@H](O)[C@H]2O)c(-c2ccc(O)c(O)c2)oc2cc(O)cc(O)c12 [Hyperoside, hyperoside]
- Superoxide IC50 [1]: 10.59 ± 0.22 µg/mL
- DPPH IC50 [2, 6]: 5.29 ± 0.17 µg/mL
- IC50 (α-glucosidase): 75.3 µM
- ABTS IC50 [5, 6]: 18.00 ± 0.16 µg/mL

Compound: Cc1cc(C(C)(C)C)c(O)c(C(C)(C)C)c1 [BHT, Butylated hydroxytoluene, reference compound]
- DPPH IC50 [2, 6]: 24.04 ± 4.40 µg/mL
- DPPH IC50 ([2]; solvent extracts of C. pinnatifida fruits, BHT positive control (Table 2)): 34.28 ± 1.40 µg/mL
- FRAP (TE) [3, 7]: 4257.97 ± 44.90 mM/g
- FRAP (TE) ([3]; millimolar Trolox equivalents per gram of extract (Table 2)): 4257.97 ± 44.90 mM/g
- Hydroxyl IC50 [4, 6]: 60.62 ± 2.58 µg/mL
- Hydroxyl IC50 [4, 8]: 61.51 ± 2.46 µg/mL
- ABTS IC50 [5, 6]: 16.13 ± 3.29 µg/mL
- ABTS IC50 [5, 8]: 12.34 ± 0.29 µg/mL
